The values below come from patent US11214803B2, “Modulators of YAP1 expression” (Ionis Pharmaceuticals, Inc., priority 2019, dated 2022).

Strand notation (5' to 3'): a small letter for the sugar, then the base; units joined by * are phosphorothioate-linked, units joined directly phosphodiester-linked; [ ] holds rarer units or linkages, { } end groups; capitals alone tell only the bases. e = 2'-O-(2-methoxyethyl) (MOE); k = constrained ethyl (cEt); [5mC] = 5-methylcytosine; d = 2'-deoxy (DNA); m = 2'-O-methyl

This data set has as its system Yap1 mRNA. Description: Antisense inhibition of human Yap1 in SNU-449 cells by modified oligonucleotides, single dose (Example 5, RTS36584). It counts as cell-based. As for the experimental part: Modified oligonucleotides with additional chemistry modifications were designed to target a Yap1 nucleic acid and were tested for their effect on Yap1 mRNA level in SNU-449 cells. The modified oligonucleotides were tested in a series of experiments that had similar culture conditions. Cultured SNU-449 cells at a density of 10,000 cells per well were treated using free uptake with 2,000 nM of modified oligonucleotide. After a treatment period of approximately 48 hours, RNA was isolated from the cells and Yap1 mRNA levels were measured by quantitative real-time RTPCR. Human primer probe set RTS36584 was used to measure mRNA levels. Yap1 mRNA levels were normalized to total RNA content, as measured by RIBOGREEN®. Results are presented in the tables below as percent control of the amount of Yap1 mRNA relative to untreated control cells (% UTC). The modified oligonucleotides with percent control values marked with an asterisk (*) target the amplicon region of the primer probe set. Additional assays may be used to measure the potency and efficacy of the modified oligonucleotides targeting the amplicon region.
Several different chemistry modifications were tested, which are specified in the Chemistry Notation column of the tables below, wherein the notation “d” refers to a 2′-deoxyribose sugar, the notation “s” refers to a phosphorothioate (P═S) internucleoside linkage, the notation “k” refers to a cEt modified sugar, the notation “y” refers to a 2′-O-methyl ribose sugar, the notation “e” refers to a MOE modified sugar, and the notation “^mC” refers to a 5-methylcytosine.
“Start site” indicates the 5′-most nucleoside to which the gapmer is targeted in the human gene sequence. “Stop site” indicates the 3′-most nucleoside to which the gapmer is targeted human gene sequence. […] Activity of the modified oligonucleotide may be defined in a different experiment.

Setting [1] is: Table 39, SNU-449 cells, 10,000 cells per well, free uptake, 2,000 nM oligonucleotide, approx. 48 hours, RTS36584, normalized to RIBOGREEN, Yap1 mRNA relative to untreated control.
The mark [2] stands for this setting: Table 49, Yap1 mRNA level relative to untreated control, modified oligonucleotides targeting SEQ ID NO.: 1 and 2.
[3] abbreviates: Table 46, Yap1 mRNA as percent of untreated control, SNU-449 cells, single dose.
[4] abbreviates: Table 51, Yap1 mRNA remaining as percent of untreated control (UT), SNU-449 cells, single dose.
Setting [5] is: Table 50, Yap1 mRNA remaining as percent of untreated control (UT), SNU-449 cells, single dose.
Setting [6] is: Table 48, Yap1 mRNA level relative to untreated control, modified oligonucleotides targeting SEQ ID NO.: 1 and 2.
Where [7] appears, read: Table 44 experiment, SNU-449 cells, 10,000 cells per well, free uptake, 2,000 nM, approximately 48 hours, RTS36584, Yap1 mRNA normalized to RIBOGREEN, relative to untreated control cells.
Where [8] appears, read: Table 52, Yap1 mRNA, modified oligonucleotides targeting SEQ ID NO: 1 and 2.
Where [9] appears, read: Table 41, SNU-449 cells, 10,000 cells per well, free uptake, 2,000 nM modified oligonucleotide, approximately 48 hours, RTS36584, normalized to RIBOGREEN, Yap1 mRNA relative to untreated control cells.
[10] abbreviates: Table 42 (separate experiment), SNU-449 cells, 10,000 cells per well, free uptake, 2,000 nM modified oligonucleotide, approximately 48 hours, RTS36584, normalized to RIBOGREEN, Yap1 mRNA relative to untreated control cells.
[11] abbreviates: Table 40 (separate experiment), SNU-449 cells, 10,000 cells per well, free uptake, 2,000 nM oligonucleotide, approx. 48 hours, RTS36584, normalized to RIBOGREEN, Yap1 mRNA relative to untreated control.

With “1198455 (kT*dT*dA*dG*dA*d[5mC]*dT*dA*dA*dG*dT*kA*eA*kG*eG*kT) [Compound 1198455]”, the “YAP1 (% UTC)” value under setting [1] is listed as 42 % UTC.
As for “1198349 (kA*kT*kG*dT*dA*dA*dT*dA*dT*dT*dG*d[5mC]*kA*eA*kT*e[5mC]) [Compound 1198349]”, the “YAP1 (% UT)” value under setting [2] is 85 % UT.
With “1198866 (kT*kA*dA*dT*dA*dT*dT*dG*d[5mC]*dA*dA*kT*e[5mC]*kT*eG*kT; antisense) [Compound 1198866]”, the “YAP1 (% UT)” value under setting [3] was 60 % UT.
Consider “1197300 (kG*kA*kT*dT*mU*dA*dG*dG*dA*dT*dG*d[5mC]*dA*kT*kG*kG; antisense) [Compound 1197300]”, for which, under setting [4], the “YAP1 (% UT)” value is reported as 42 % UT.
Same read-out and setting: the same measure for “1197239 (antisense kT*kG*kA*dG*mG*dT*dA*dT*dA*dA*d[5mC]*dT*dG*kG*kG*k[5mC]) [Compound 1197239]”: 47 % UT.
For the substance “1198615 (antisense kT*kT*kA*dA*dA*dG*dT*dG*dT*dA*dT*dG*kT*k[5mC]*kA*eG) [Compound 1198615]”, the “YAP1 (% UT)” value under setting [5] came out at 10 % UT.
In the case of “1198351 (kT*kT*kT*dA*dT*dG*dT*dA*dA*dT*dA*dT*kT*eG*k[5mC]*eA; antisense) [Compound 1198351]”, the “YAP1 (% UT)” value under setting [2] is 40 % UT.
Consider “1198311 (k[5mC]*kA*k[5mC]*dT*dT*dT*dT*dA*d[5mC]*dA*dT*dT*kA*eG*kG*eA; antisense) [Compound 1198311]”, for which the “YAP1 (% UT)” value under setting [6] stood at 39 % UT.
For the substance “1197281 (kA*kT*kT*dG*mU*d[5mC]*dT*dC*dA*dT*dG*d[5mC]*d[5mC]*kT*kT*kA; antisense) [Compound 1197281]”, the “YAP1 (% UT)” value under setting [5] was 42 % UT.
In the case of “1009397 (kA*kA*k[5mC]*dA*d[5mC]*dT*dG*dA*dG*dG*dT*dA*dT*kA*kA*k[5mC]; antisense) [Compound 1009397]”, the “YAP1 (% UT)” value under setting [6] worked out at 44 % UT.
Regarding “1198900 (kA*kG*dA*dG*dT*dA*dT*dG*dT*dG*dG*k[5mC]*dA*kA*dT*kA; antisense) [Compound 1198900]”, under setting [7], the “YAP1 (% UTC)” value is recorded as 11 % UTC.
Same read-out and setting: with “1198495 (antisense kA*kG*dT*dG*d[5mC]*dT*dT*dT*dG*dG*dA*eA*kG*eA*kT*e[5mC]) [Compound 1198495]” the figure was 22 % UTC.
Consider “1198392 (kA*dA*d[5mC]*dA*d[5mC]*dT*dG*dA*dG*dG*dT*kA*eT*kA*eA*k[5mC]; antisense) [Compound 1198392]”, for which the “YAP1 (% UTC)” value under setting [1] amounted to 48 % UTC.
In the case of “1198891 (kA*kT*dT*dG*dT*d[5mC]*dT*d[5mC]*dA*dT*dG*k[5mC]*d[5mC]*kT*dT*kA) [Compound 1198891]”, the “YAP1 (% UTC)” value under setting [7] amounted to 18 % UTC.
Consider “1198902 (kT*kT*dA*dG*dA*dG*dT*dA*dT*dG*dT*kG*dG*k[5mC]*dA*kA; antisense) [Compound 1198902]”, for which the “YAP1 (% UTC)” value under setting [7] came to 13 % UTC.
For “1200789 (G_{ks}G_{ks}A_{ks}A_{ds}A_{ds}U_{ys}T_{ds}G_{ds}T_{ds}^{m}C_{ds}T_{ds}^{m}C_{ds}A_{ds}T_{ks}G_{ks}^{m}C_{k}; antisense; as printed in the source, key not given here) [Compound 1200789]”, the “YAP1 (% UT)” value under setting [8] came out at 12 % UT.
Turning to “1198304 (kA*kG*kG*dT*dA*dT*dA*dA*d[5mC]*dT*dG*dG*kG*e[5mC]*kA*eA; antisense) [Compound 1198304]”, the “YAP1 (% UT)” value under setting [2] stood at 33 % UT.
Consider “1097224 (antisense k[5mC]*kT*k[5mC]*dT*dT*dA*dT*dA*dT*dG*dG*dT*dT*kT*kT*kG) [Compound 1097224]”, for which, under setting [6], the “YAP1 (% UT)” value amounted to 22 % UT.
On to “1198889 (kT*kT*dA*dG*dA*d[5mC]*dT*dA*dA*dG*dT*kA*eA*kG*eG*kT; antisense) [Compound 1198889]”, for which the “YAP1 (% UT)” value under setting [3] was 27 % UT.
Turning to “1198634 (kT*kG*dG*dA*dA*dA*dT*dT*dG*dT*d[5mC]*dT*k[5mC]*eA*kT*eG; antisense) [Compound 1198634]”, the “YAP1 (% UTC)” value under setting [9] worked out at 34 % UTC.
With “1198340 (kA*kA*k[5mC]*dT*d[5mC]*dT*dT*dA*dT*dA*dT*dG*kG*eT*kT*eT; antisense) [Compound 1198340]”, the “YAP1 (% UT)” value under setting [2] came to 123 % UT.
With “1198599 (antisense k[5mC]*kA*kA*d[5mC]*dT*d[5mC]*dT*dT*dA*dT*dA*dT*kG*kG*kT*eT) [Compound 1198599]”, the “YAP1 (% UT)” value under setting [5] is reported as 90 % UT.
As to “1198959 (kA*kG*dT*dG*dT*dA*dT*dG*dT*d[5mC]*dA*kG*dA*kA*dG*kA; antisense) [Compound 1198959]”, the “YAP1 (% UTC)” value (Table 45, Yap1 mRNA as percent of untreated control, SNU-449 cells, single dose) was 8 % UTC.
For the substance “1198269 (kA*kA*dA*dG*dT*dG*dT*dA*dT*dG*dT*e[5mC]*eA*eG*kA*kA; antisense) [Compound 1198269]”, the “YAP1 (% UTC)” value (Table 43 experiment, SNU-449 cells, 10,000 cells per well, free uptake, 2,000 nM, approximately 48 hours, RTS36584, Yap1 mRNA normalized to RIBOGREEN, relative to untreated control cells) stood at 58 % UTC.
Turning to “1198205 (kA*kT*dG*dG*dA*dA*dA*dT*dT*dG*dT*e[5mC]*eT*e[5mC]*kA*kT; antisense) [Compound 1198205]”, the “YAP1 (% UTC)” value under setting [10] is reported as 64 % UTC.
As to “1198764 (kA*eG*kA*dT*dT*dT*dA*dG*dG*dA*dT*dG*e[5mC]*eA*kT*kG; antisense) [Compound 1198764]”, the “YAP1 (% UTC)” value under setting [11] is given as 28 % UTC.
“1197296 (kT*kG*k[5mC]*dT*mU*dT*dG*dG*dA*dA*dG*dA*dT*k[5mC]*kT*kG) [Compound 1197296]”: the “YAP1 (% UT)” value under setting [4] is 36 % UT.
For the substance “1198669 (antisense kA*kG*dG*dA*dT*dG*d[5mC]*dA*dT*dG*dG*dT*kT*eT*kT*eT) [Compound 1198669]”, the “YAP1 (% UTC)” value under setting [9] is reported as 61 % UTC.
“1198827 (kT*kT*dA*d[5mC]*dA*dT*dT*dA*dG*dG*dA*kA*e[5mC]*kA*eA*kG; antisense) [Compound 1198827]”: the “YAP1 (% UT)” value under setting [3] is 60 % UT.
“1200835 (k[5mC]*kA*kG*dA*dT*mU*dT*dA*dG*dG*dA*dT*dG*k[5mC]*kA*kT; antisense) [Compound 1200835]”: the “YAP1 (% UT)” value under setting [8] worked out at 82 % UT.
Turning to “1198549 (antisense kA*kT*kG*dG*dA*dA*dA*dT*dT*dG*dT*d[5mC]*kT*k[5mC]*kA*eT) [Compound 1198549]”, the “YAP1 (% UT)” value under setting [2] is recorded as 84 % UT.
On to “1198681 (antisense T_{ks}C_{ks}T_{ds}T_{ds}A_{ds}T_{ds}A_{ds}T_{ds}G_{ds}G_{ds}T_{ds}T_{ds}T_{ks}T_{es}G_{ks}T_{e}; as printed in the source, key not given here) [Compound 1198681]”, for which, under setting [10], the “YAP1 (% UTC)” value is on record as 54 % UTC.
As to “1198353 (kA*kG*kT*dG*dT*dA*dT*dG*dT*d[5mC]*dA*dG*kA*eA*kG*eA; antisense) [Compound 1198353]”, under setting [2], the “YAP1 (% UT)” value was found to be 8 % UT.
Turning to “1198206 (kA*kT*dA*dT*dG*dG*dA*dA*dA*dT*dT*eG*eT*e[5mC]*kT*k[5mC]; antisense) [Compound 1198206]”, the “YAP1 (% UTC)” value under setting [10] stood at 43 % UTC.
Turning to “1198503 (k[5mC]*kA*dG*dA*dT*dT*dT*dA*dG*dG*dA*eT*kG*e[5mC]*kA*eT; antisense) [Compound 1198503]”, the “YAP1 (% UTC)” value under setting [7] came out at 31 % UTC.
Regarding “1198450 (kT*dA*dA*dG*dT*dA*dA*dG*dG*dT*dT*kT*e[5mC]*k[5mC]*e[5mC]*kA; antisense) [Compound 1198450]”, the “YAP1 (% UTC)” value under setting [1] stood at 42 % UTC.
In the case of “1198798 (antisense kT*eA*kA*dG*dT*dA*dA*dG*dG*dT*dT*dT*e[5mC]*e[5mC]*k[5mC]*kA) [Compound 1198798]”, under setting [11], the “YAP1 (% UTC)” value was 38 % UTC.
For the substance “1200859 (kA*kA*kA*dG*dT*mG*dT*dA*dT*dG*dT*d[5mC]*dA*kG*kA*kA; antisense) [Compound 1200859]”, the “YAP1 (% UT)” value under setting [8] is 28 % UT.
As for “1198874 (kA*kA*dG*dT*dG*dT*dA*dT*dG*dT*d[5mC]*kA*eG*kA*eA*kG) [Compound 1198874]”, the “YAP1 (% UT)” value (Yap1 mRNA, percent of untreated control, modified oligonucleotides targeting SEQ ID NO: 1 and 2, Table 47) was determined as 2 % UT.
